Measured values published in patent US20250179073A1, “TRICYCLIC HETEROCYCLE COMPOUNDS AS IAP ANTAGONISTS” (Ascentage Pharma (Suzhou) Co., Ltd., priority 2022, published 2025).

Experiments:
[1] = tested on: MDA-MB-231 cells; assay: Cell proliferation assay (CellTiter-Glo), MDA-MB-231; assay type: cell-based; settings: Homo sapiens, MDA-MB-231, 72 h, 72 h treatment, Celltiter-Glo luminescence
Procedure, shortened: (§1)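 Compounds tested over ten concentrations ([…]) for 72 h on EVSA-T cells in MEM/10% FBS and MDA-MB-231 cells in RPMI-1640/10% FBS, seeded at 10000/well. Luminescent CellTiter-Glo readout; IC50 fitted after normalisation to controls.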

[2] = tested on: EVSA-T cells; assay: Cell proliferation assay (CellTiter-Glo), EVSA-T; assay type: cell-based; settings: Homo sapiens, EVSA-T, 72 h, 72 h treatment, Celltiter-Glo luminescence
Procedure, shortened: as §1

Row | SMILES | IC50 [1] | IC50 [2]
1 | C[C@@H]1CN(CC(=O)N2CC(C)(C)c3c2cc(Cc2ccc(F)cc2)c2ncc(C#N)n32)[C@@H](CN2CCOC[C@H]2C)CN1 [Compound 111, 4-(4-fluorobenzyl)-8,8-dimethyl-6-(2-((2R,5R)-5-methyl-2-(((R)-3-methylmorpholino)methyl)piperazin-1-yl)acetyl)-7,8-dihydro-6H-imidazo[1,2-a]pyrrolo[2,3-e]pyridine-1-carbonitrile] | 42 nM | 2 nM
2 | C[C@@H]1CN(CC(=O)N2CC(C)(C)c3c2cc(Sc2ccc(F)cc2)c2ncnn32)[C@@H](CN2CCOC[C@H]2C)CN1 [Compound 49, 1-(4-((4-fluorophenyl)thio)-8,8-dimethyl-7,8-dihydro-6H-pyrrolo[2,3-e][1,2,4]triazolo[1,5-a]pyridin-6-yl)-2-((2R,5R)-5-methyl-2-(((R)-3-methylmorpholino)methyl)piperazin-1-yl)ethan-1-one] | 30 nM | 5 nM
3 | C[C@@H]1CN(CC(=O)N2CC(C)(C)c3c2cc(Cc2ccc(F)cc2)c2nn(Cc4cnccn4)c(=O)n32)[C@@H](CN2CCOC[C@H]2C)CN1 [Compound 193, 4-(4-fluorobenzyl)-8,8-dimethyl-6-(2-((2R,5R)-5-methyl-2-(((R)-3-methylmorpholino)methyl)piperazin-1-yl)acetyl)-2-(pyrazin-2-ylmethyl)-2,6,7,8-tetrahydro-1H-pyrrolo[2,3-e][1,2,4]triazolo[4,3-a]pyridin-1-one] | 50 nM | 6 nM
4 | C[C@@H]1CN(CC(=O)N2CC(C)(C)c3c2cc(Cc2ccc(F)cc2)c2cncn32)[C@@H](CN2CCOC[C@H]2C)CN1 [Compound 1, 1-(4-(4-fluorobenzyl)-8,8-dimethyl-7,8-dihydro-6H-imidazo[1,5-a]pyrrolo[2,3-e]pyridin-6-yl)-2-((2R,5R)-5-methyl-2-(((R)-3-methylmorpholino)methyl)piperazin-1-yl)ethan-1-one] | 77 nM | 7 nM
5 | C[C@@H]1CN(CC(=O)N2CC(C)(C)c3c2cc(Cc2ccc(F)cc2)c2nc(N4CC(O)C4)nn32)[C@@H](CN2CCOC[C@H]2C)CN1 [Compound 159, 1-(4-(4-fluorobenzyl)-2-(3-hydroxyazetidin-1-yl)-8,8-dimethyl-7,8-dihydro-6H-pyrrolo[2,3-e][1,2,4]triazolo[1,5-a]pyridin-6-yl)-2-((2R,5R)-5-methyl-2-(((R)-3-methylmorpholino)methyl)piperazin-1-yl)ethan-1-one] | 20 nM | 4 nM
6 | Cc1ncc2c(Cc3ccc(F)cc3)cc3c(n12)C(C)(C)CN3C(=O)CN1C[C@@H](C)NC[C@@H]1CN1CCOC[C@H]1C [Compound 2, 1-(4-(4-fluorobenzyl)-1,8,8-trimethyl-7,8-dihydro-6H-imidazo[1,5-a]pyrrolo[2,3-e]pyridin-6-yl)-2-((2R,5R)-5-methyl-2-(((R)-3-methylmorpholino)methyl)piperazin-1-yl)ethan-1-one] | 110 nM | 13 nM
